Experiments:
[1] = tested on: rat; assay: Carrageenan test (inflamed pain); format: in vivo; details: inhibition class
Description: Injection of carrageenan subcutaneously into the hind foot (paw) of a rat induces robust inflammation and pain. The inflammatory response begins 1-2 hrs post-carrageenan injection and persists for at least five hours following inoculation. In addition, the rat's inflamed hind paw is sensitive to noxious (hyperalgesia) or innocuous (allodynia) stimuli, compared to the contralateral hind paw. Compounds can be evaluated in this model for anti-hyperalgesia and anti-inflammatory activity. […] It is possible that some compounds will affect the inflamed paw and not affect the responses of the contralateral paw.
Embodiments of the carrageenan foot edema test are performed with materials, reagents and procedures essentially as described by Winter, et al., (Proc. Soc. Exp. Biol. Med., 111, 544 (1962)). […] The rats are evaluated for their responsiveness to noxious (paw pinch, plantar test) or innocuous (cold plate, von Frey filaments) stimuli.
In a prophylactic embodiment, following determination of “Pre-carrageenan” responses, a subplantar injection of the test compound or a placebo are administered. […] Three hours (and optionally five hours) after carrageenan injection, the rats are evaluated for their responsiveness to noxious or innocuous stimuli and the paw volume was again measured. […]

[2] = tested on: rat; assay: Capsaicin test (topical capsaicin allodynia); format: in vivo
Description: Subcutaneous injection of dilute capsaicin into the rat hind paw produces transient but pronounced hyperalgesia, allodynia and pain. This effect may be mitigated by pretreatment with a suitable agent, such as a topical anaesthetic or analgesic, and the extent of this mitigation quantified by evaluation of pain-related behaviors in response to noxious or innocuous stimuli as described above; rats pretreated with a known analgesic display fewer pain and allodynia related behaviors than controls. Compounds may be evaluated for their efficacy as potential analgesics in this manner as well.
Male Lewis rats weighing between 180 and 250 grams are used. The right hind paw is dipped into vehicle (100% acetone) or compound in vehicle for 30 seconds and then allowed to air-dry for 30 sec. To prevent the animal from licking the compound off the paw, the paw is wiped twice with a wet paper towel. At 15 min after application of vehicle or compound, 0.1 mg in 10 μL capsaicin is injected into right hind paw. Measurement of allodynia is performed 0.5 to 1 hour after capsaicin injection.
One procedure for quantifying allodynia measures the rat behavioral response to presentation of von Frey filaments of increasing diameter. Each rat is placed in a small, clear cage on an elevated screen. Beginning with 4.31, the von Frey hair is presented perpendicularly to the right mid-plantar hind paw with sufficient force to cause slight buckling, for 6-8 seconds. If presentation lifts the hind paw it is disregarded, as it changes the nature of the stimulus. A positive response is noted if the paw is sharply withdrawn upon onset or offset of stimulus. Ambulation is considered an ambiguous response and the presentation is repeated. Stimuli are presented in a consecutive fashion. A positive response would call for the presentation of the immediately weaker weight filament next; likewise, no response would call for the immediately stronger. Presentations continue until a series of six consecutive responses from the first change is logged. The next rat is then tested. This procedure is standard in the art for the measurement of allodynia, but any other method known in the art which provides adequate sensitivity and reproducibility may be substituted.

[3] = at 0.5 hr after capsaicin injection
[4] = at 1 hr after capsaicin injection

| SMILES | Carrageenan Inflamed Pain at 30 mg/kg [1] | Topical Capsaicin Allodynia [2, 3] | Topical Capsaicin Allodynia [2, 4] |
| --- | --- | --- | --- |
| CN(CCCNCc1ccc2c(c1)OCO2)c1nc(-n2ccnc2)ns1 [Example 2, N′-Benzo[1,3]dioxol-5-ylmethyl-N-(3-imidazol-1-yl-[1,2,4]thiadiazol-5-yl)-N-methyl-propane-1,3-diamine] | − ((−) = <40% inhibition) | + at 0.5 hr ((+) = >15% inhibition) | + at 1 hr ((+) = >15% inhibition) |
| Cc1cc(C2CCCN2C(=O)NCCc2ccc3c(c2)OCO3)nc(-n2ccnc2)n1 (stereo not shown) [Example 4, 2-(2-Imidazol-1-yl-6-methyl-pyrimidin-4-yl)-pyrrolidine-1-carboxylic acid (2-benzo[1,3]dioxol-5-yl-ethyl)-amide] |  | − at 0.5 hr ((−) = <15% inhibition) | + at 1 hr ((+) = >15% inhibition) |
| Cc1cc(C2CCCN2C(=O)CNCc2ccc3c(c2)OCO3)nc(-n2ccnc2)n1 (stereo not shown) [Example 5] |  | + at 0.5 hr ((+) = >15% inhibition) | − at 1 hr ((−) = <15% inhibition) |
